Results as given in patent publication US20230123601A1, “PHARMACEUTICAL COMBINATION OF ANTIVIRAL AGENTS TARGETING HBV AND/OR AN IMMUNE MODULATOR FOR TREATMENT OF HBV” (priority 2019, published 2023).

System: HBV
Test: HBV-DNA levels in serum of AAV/HBV mice (qPCR)
Assay type: in vivo, C57BL/6 mice
Parameters: HBV-DNA levels in serum: unit not given here
Source text: The AAV-HBV mouse model is generated by injecting C57BL/6 mice with recombinant adeno-associated virus harboring a replicable HBV genome (AAV-HBV). The rAAV8-1.3 HBV ayw virus stock was purchased from Beijing FivePlus Molecular Medicine Institute (Beijing, China). The animals (male, aged 4-5 weeks upon arrival) were purchased from SLAC Laboratory Animal Co. Ltd (Shanghai, China), acclimatized in the animal facility for 5-7 days, and then injected with 1×10^11 vector genome of AAV-HBV (diluted in 200 μL of PBS) through the tail vein. Persistence expression of HBV genome can be established after three weeks, with high levels of HBV viral markers including HBV DNA, HBsAg, and HBeAg in mouse serum. With stable HBV viremia and competent immune system of the C57BL/6 mice, the AAV-HBV mouse model was used to evaluate the in vivo anti-HBV efficacy of the compounds. The in-life part of the AAV-HBV study was conducted through contracted service at Covance Pharmaceutical Research and Development (Shanghai) Co. Ltd. (Covance Shanghai) and the post-life analysis using the serum was performed internally at Roche Innovation Center Shanghai (RICS).
Seven days before compound treatment, blood samples were collected for serum preparation (˜15 μL), and based on HBV DNA, HBsAg levels in serum and body weight, the AAV-HBV infected animals were stratified into the different treatment groups.
Saline (Group 01) and anti-HBV ASO of CMP ID NO: 15_1 at 1.5 or 7.5 mg/kg were dosed sub subcutaneously once a week during Day 0-49 on Days 0, 7, 14, 21, 28, 35, 42 and 49. TLR7 agonist of CMP ID NO: VI 100 mg/kg was administered by oral gavage once every other day during Day 0-55 (QOD) or once weekly during Day 0-49 on Days 0, 7, 14, 21, 28, 35, 42 and 49 (QW). The animals were weekly bled via retro-orbital sinus for sample collection throughout the study.
Initially mice serum was diluted by a factor of 10 (1:10) with Phosphate buffered saline (PBS). DNA was extracted using the MagNA Pure 96 (Roche) robot. 50 μl of the diluted serum was mixed in a processing cartridge with 200 ul MagNA Pure 96 external lysis buffer (Roche, Cat. no. 06374913001) and incubated for 10 minutes. DNA was then extracted using the “MagNA Pure 96 DNA and Viral Nucleic Acid Small Volume Kit” (Roche, Cat. no. 06543588001) and the “Viral NA Plasma SV external lysis 2.0” protocol. DNA elution volume was 50 μl.
Quantification of extracted HBV DNA was performed using a Taqman qPCR machine (ViiA7, life technologies). Each DNA sample was tested in duplicate in the PCR. 5 μl of DNA sample was added to 15 μl of PCR mastermix containing 10 μl TaqMan Gene Expression Master Mix (Applied Biosystems, Cat. no. 4369016), 0.5 μl PrimeTime XL qPCR Primer/Probe (IDT) and 4.5 μl distilled water in a 384 well plate and the PCR was performed using the following settings: UDG Incubation (2 min, 50° C.), Enzyme Activation (10 min, 95° C.) and PCR (40 cycles with 15 sec, 95° for Denaturing and 1 min, 60° C. for annealing and extension). DNA copy numbers were calculated from Ct values based on a HBV plasmid DNA standard curve by the ViiA7 software.
To evaluate the combination of the anti-HBV ASO and the TLR7 agonist in an in vivo system, a mouse model of chronic HBV infection was used. In the AAV/HBV mouse model described in the Materials and Method a persistent HBV infection is established resulting in expression of viral markers (HBsAg, HBeAg, HBV DNA) detectable in plasma. The effect on these viral markers upon treatment with the anti-HBV ASO of CMP ID NO: 15_1 (table 2, and FIG. 4) dosed at 1.5 mg/kg or 7.5 mg/kg and the TLR7 agonist of CMP ID NO: VI (table 3) dosed with […] every other day (QOD) or once weekly (QW) in monotherapy or in combination has been evaluated.

## CC[C@H](OC(C)=O)[C@@H]1C[C@@H](O)[C@H](n2c(=O)sc3cnc(N)nc32)O1 [CMP ID NO: VI, [(1S)-1-[(2S,4R,5R)-5-(5-amino-2-oxo-thiazolo[4,5-d]pyrimidin-3-yl)-4-hydroxy-tetrahydrofuran-2-yl]propyl] acetate]
TLR7 100 mg/kg QOD, D0
  HBV-DNA levels in serum: 7.69 ± 0.19
TLR7 100 mg/kg QOD, D7
  HBV-DNA levels in serum: 5.74 ± 0.62
TLR7 100 mg/kg QOD, D14, 100 mg/kg
  HBV-DNA levels in serum: 5.73 ± 1.2
TLR7 100 mg/kg QOD, D21
  HBV-DNA levels in serum: 5.55 ± 0.32
TLR7 100 mg/kg QOD, D28
  HBV-DNA levels in serum: 5.23 ± 1.02
TLR7 100 mg/kg QOD, D35
  HBV-DNA levels in serum: 4.69 ± 0.71
TLR7 100 mg/kg QOD, D42
  HBV-DNA levels in serum: 4.72 ± 0.76
TLR7 100 mg/kg QOD, D49, 100 mg/kg
  HBV-DNA levels in serum: 4.5 ± 0.55
TLR7 100 mg/kg QOD, D56
  HBV-DNA levels in serum: 4.59 ± 0.65
TLR7 100 mg/kg QOD, D63, 100 mg/kg
  HBV-DNA levels in serum: 5.3 ± 1.21
TLR7 100 mg/kg QOD, D70
  HBV-DNA levels in serum: 5.95 ± 1.17
TLR7 100 mg/kg QOD, D77
  HBV-DNA levels in serum: 6.01 ± 1.17
TLR7 100 mg/kg QOD, D84
  HBV-DNA levels in serum: 6.26 ± 1.08
TLR7 100 mg/kg QOD, D91
  HBV-DNA levels in serum: 5.81 ± 1.09
TLR7 100 mg/kg QOD, D98
  HBV-DNA levels in serum: 6.02 ± 1.17
TLR7 100 mg/kg QOD, D105
  HBV-DNA levels in serum: 6.23 ± 1.29
TLR7 100 mg/kg QOD, D111
  HBV-DNA levels in serum: 6.77 ± 0.64
TLR7 100 mg/kg QW, D0, 100 mg/kg
  HBV-DNA levels in serum: 7.68 ± 0.2
TLR7 100 mg/kg QW, D7
  HBV-DNA levels in serum: 7.15 ± 0.67
TLR7 100 mg/kg QW, D14
  HBV-DNA levels in serum: 7.14 ± 0.47
TLR7 100 mg/kg QW, D21
  HBV-DNA levels in serum: 6.65 ± 0.75
TLR7 100 mg/kg QW, D28, 100 mg/kg
  HBV-DNA levels in serum: 6.1 ± 1.25
TLR7 100 mg/kg QW, D35
  HBV-DNA levels in serum: 6.61 ± 0.98
TLR7 100 mg/kg QW, D42, 100 mg/kg
  HBV-DNA levels in serum: 6.4 ± 0.84
TLR7 100 mg/kg QW, D49
  HBV-DNA levels in serum: 6.27 ± 0.89
TLR7 100 mg/kg QW, D56
  HBV-DNA levels in serum: 6.74 ± 0.64
TLR7 100 mg/kg QW, D63, 100 mg/kg
  HBV-DNA levels in serum: 6.72 ± 0.7
TLR7 100 mg/kg QW, D70, 100 mg/kg
  HBV-DNA levels in serum: 6.8 ± 0.64
TLR7 100 mg/kg QW, D77
  HBV-DNA levels in serum: 6.95 ± 0.53
TLR7 100 mg/kg QW, D84
  HBV-DNA levels in serum: 6.87 ± 0.49
TLR7 100 mg/kg QW, D91
  HBV-DNA levels in serum: 6.59 ± 0.52
TLR7 100 mg/kg QW, D98, 100 mg/kg
  HBV-DNA levels in serum: 6.7 ± 0.4
TLR7 100 mg/kg QW, D105
  HBV-DNA levels in serum: 6.93 ± 0.43
TLR7 100 mg/kg QW, D111
  HBV-DNA levels in serum: 7.07 ± 0.45
TLR7 agonist QOD or QW monotherapy, follow-up period
  HBV DNA rebound, distance to control group: ≤ 1 log
TLR7 agonist alone
  reduction of HBV-DNA: only reached the LLOQ when dosed every other day (QOD)
TLR7 agonist monotherapy
  timing of HBV DNA rebound: occurred sooner after the end of treatment than it did in the anti-HBV ASO treated groups
TLR7 agonist monotherapy, QW dosing
  maximal reduction of HBV-DNA: around 1.5 log
